In patent US20010049450A1 (priority 2000, published 2001):
Where a name gives a salt, the structure may show the parent alone.

What was measured:
[1] = Crystal particle size distribution and average particle size (SHIMADZU SALD1100, medium diisopropyl ether); type: physicochemical; conditions: for average particle size: average diameter upon conversion of particle volume into sphere; for average particle size / crystal particle size distribution: not less than 10 μm and less than 20 μm / crystal particle size distribution: not less than 20 μm and less than 40 μm / crystal particle size distribution: less than 5 μm / crystal particle size distribution: not less than 40 μm: hydrobromide; for crystal particle size distribution: not less than 10 μm and less than 20 μm: fraction of crystals with 10 μm ≦ D < 20 μm; for crystal particle size distribution: not less than 20 μm and less than 40 μm: fraction of crystals with 20 μm ≦ D < 40 μm; for crystal particle size distribution: less than 5 μm: fraction of crystals with D < 5 μm; for crystal particle size distribution: not less than 40 μm: fraction of crystals with D ≧ 40 μm
Experimental: The average particle size in the present invention is an average diameter upon conversion of the volume of the crystal particles into sphere. The powder X-ray crystal diffraction and average particle size were measured in the following Reference Example, Examples and Comparative Example, according to the following methods. Average particle size: SHIMADZU CORPORATION SALD1100 (medium:diisopropyl ether)

[2] = Bulk density and tap density of crystals; type: physicochemical

CN(C)CCCC1(c2ccc(F)cc2)OCc2cc(C#N)ccc21 (single isomer, unassigned) [Example 1, citalopram hydrobromide]
average particle size [1]: 12.9 μm | crystal particle size distribution: not less than 10 μm and less than 20 μm [1]: 29.1% | crystal particle size distribution: not less than 20 μm and less than 40 μm [1]: 27.0% | crystal particle size distribution: less than 5 μm [1]: 17.1% | crystal particle size distribution: not less than 40 μm [1]: 4.6%

CN(C)CCCC1(c2ccc(F)cc2)OCc2cc(C#N)ccc21 (single isomer, unassigned) [Example 4, citalopram hydrobromide]
average particle size [1]: 23.8 μm | crystal particle size distribution: not less than 10 μm and less than 20 μm [1]: 20.9% | crystal particle size distribution: not less than 20 μm and less than 40 μm [1]: 31.7% | crystal particle size distribution: less than 5 μm [1]: 9.6% | crystal particle size distribution: not less than 40 μm [1]: 25.5%

CN(C)CCCC1(c2ccc(F)cc2)OCc2cc(C#N)ccc21 (single isomer, unassigned) [Example 6, citalopram hydrobromide]
average particle size [1]: 14.6 μm | crystal particle size distribution: not less than 10 μm and less than 20 μm [1]: 35.5% | crystal particle size distribution: not less than 20 μm and less than 40 μm [1]: 29.3% | crystal particle size distribution: less than 5 μm [1]: 12.6% | crystal particle size distribution: not less than 40 μm [1]: 2.4% | bulk density [2]: 0.2 g/mL | tap density [2]: 0.42 g/mL

CN(C)CCCC1(c2ccc(F)cc2)OCc2cc(C#N)ccc21 (centres unmarked) [Comparative Example 1, citalopram hydrobromide, reference compound]
average particle size [1]: 6.3 μm | crystal particle size distribution: not less than 10 μm and less than 20 μm [1]: 23.9% | crystal particle size distribution: not less than 20 μm and less than 40 μm [1]: 4.0% | crystal particle size distribution: less than 5 μm [1]: 41.9% | crystal particle size distribution: not less than 40 μm [1]: 0%

CN(C)CCCC1(c2ccc(F)cc2)OCc2cc(C#N)ccc21 (centres unmarked) [Example 2, citalopram hydrobromide]
average particle size [1]: 7.8 μm | crystal particle size distribution: not less than 10 μm and less than 20 μm [1]: 25.7% | crystal particle size distribution: not less than 20 μm and less than 40 μm [1]: 12.2% | crystal particle size distribution: less than 5 μm [1]: D < 5 μm 31.4% | crystal particle size distribution: not less than 40 μm [1]: D ≧ 40 μm 0.3%

CN(C)CCCC1(c2ccc(F)cc2)OCc2cc(C#N)ccc21 (centres unmarked) [Example 3, citalopram hydrobromide]
average particle size [1]: 11.0 μm | crystal particle size distribution: not less than 10 μm and less than 20 μm [1]: 31.0% | crystal particle size distribution: not less than 20 μm and less than 40 μm [1]: 21.6% | crystal particle size distribution: less than 5 μm [1]: D < 5 μm 19.6% | crystal particle size distribution: not less than 40 μm [1]: D ≧ 40 μm 1.6%

CN(C)CCCC1(c2ccc(F)cc2)OCc2cc(C#N)ccc21 (centres unmarked) [Example 5, citalopram hydrobromide]
average particle size [1]: 15.1 μm | crystal particle size distribution: not less than 10 μm and less than 20 μm [1]: 10 μm ≦ D < 20 μm 26.9% | crystal particle size distribution: not less than 20 μm and less than 40 μm [1]: 20 μm ≦ D < 40 μm 31.0% | crystal particle size distribution: less than 5 μm [1]: D < 5 μm 15.6% | crystal particle size distribution: not less than 40 μm [1]: D ≧ 40 μm 7.2% (shown

CN(C)CCCC1(c2ccc(F)cc2)OCc2cc(C#N)ccc21 (centres unmarked) [citalopram hydrobromide, reference compound]
fine crystals having a particle size of less than 5 μm (of the total amount) ([1]; crystallized according to the method of U.S. Pat. No. 4,650,884): 41.9%
